Laboratory results as given in patent US10575525B2, “Benzoxazole compound or salt thereof, agricultural and horticultural insecticide comprising the compound, and method for using the insecticide” (Nihon Nohyaku Co., Ltd., priority 2016, dated 2020).

Tests used:
[1] = test system: Laodelphax striatella; assay: Insecticidal test on Laodelphax striatella (rice seedling dip); type: in vivo; conditions: Laodelphax striatellus, 192 h, rice seedlings dipped 30 seconds, 3rd-instar larvae, 8 days after inoculation, read-out: corrected mortality rate, activity level
Excerpt: Insecticidal test on Laodelphax striatella
The benzoxazole compounds represented by the general formula (1) of the present invention or salts thereof were separately dispersed in water and diluted to 500 ppm. Rice plant seedlings (variety: Nihonbare) were dipped in the agrochemical dispersions for 30 seconds. After air-dried, each seedling was put into a separate glass test tube and inoculated with ten 3rd-instar larvae of Laodelphax striatella, and then the glass test tubes were capped with cotton plugs. At 8 days after the inoculation, the numbers of surviving larvae and dead larvae were counted, the corrected mortality rate was calculated according to the formula shown below and evaluated according to the criteria shown below. Corrected mortality rate (%)=100×(Survival rate in a non-treatment plot−Survival rate in a treatment plot)/Survival rate in a non-treatment plot [Math. 2] Criteria A: the corrected mortality rate is 100%. B: the corrected mortality rate is 90 to 99%. C: the corrected mortality rate is 80 to 89%. D: the corrected mortality rate is 50 to 79%.

[2] = test system: Plutella xylostella; assay: Insecticidal test on Plutella xylostella (dip of Chinese cabbage seedlings with laid eggs); type: in vivo; conditions: 144 h, seedlings with eggs dipped about 30 seconds, 25° C., 6 days after dip treatment, criteria of Test Example 2, read-out: insecticidal effect (corrected mortality rate), activity level
Excerpt: Insecticidal test on Plutella xylostella
Adults of Plutella xylostella were released onto Chinese cabbage seedlings and allowed to lay eggs thereon. At 2 days after the release of the adults, the Chinese cabbage seedlings with laid eggs were dipped for about 30 seconds in agrochemical aqueous dispersions diluted to 500 ppm, each of which contained a different kind of benzoxazole compound represented by the general formula (1) of the present invention as an active ingredient. After air-dried, the seedlings were kept in a thermostatic chamber at 25° C. At 6 days after the dip treatment, the number of hatched larvae per plot was counted, the mortality rate was calculated according to the formula shown below, and the insecticidal effect was evaluated according to the criteria of Test Example 2. This test was conducted in triplicate using 10 adults of Plutella xylostella per plot. Corrected mortality rate (%)=100×(Number of hatched larvae in a non-treatment plot−Number of hatched larvae in a treatment plot)/Number of hatched larvae in a non-treatment plot [Math. 3]

| Structure (SMILES) | mortality at 500 ppm [1] [%] | mortality at 500 ppm [2] [%] |
| --- | --- | --- |
| CCS(=O)(=O)c1cc(C2CC2)cnc1-c1nc2cc(OC(F)(F)F)ccc2o1 [Compound 1-3, 2-(5-Cyclopropyl-3-ethylsulfonylpyridin-2-yl)-5-(trifluoromethoxy)benzo[d]oxazole] | 100 | 100 |
| CCS(=O)(=O)c1cc(C2CC2)cnc1-c1nc2cc([S+]([O-])C(F)(F)F)ccc2o1 (stereo not shown) [Compound 1-12, 2-(5-Cyclopropyl-3-ethylsulfonylpyridin-2-yl)-5-(trifluoromethylsulfinyl)benzo[d]oxazole] | 100 | 100 |
